Ends that are not written are not given here.

Assay [1] relates to hypoxic MS-1 endothelial cells. Briefly: In vitro hypoxia and immunocytochemistry: β2-GPI / anti-β2-GPI mAb binding to hypoxic endothelial cells. It is filed as cell-based, mouse. The following applies: peptide 40 μM during 4 hours hypoxia. The procedure: MS-1 endothelial cells were subjected to hypoxia or normoxia to validate β2-GPI binding in vitro. Hypoxic MS-1 endothelial cells (ATCC CRL-2279) received degassed, serum-free DMEM and were placed in a hypoxia chamber containing 94% nitrogen and 5% CO2. Normoxic cells received DMEM supplemented with 10% heat-inactivated sera from Rag-1^−/− mice in 8% CO2. After 4 hours at 37° C., all cells received fresh medium containing 10% heat-inactivated Rag-1^−/− sera and were incubated in normoxic conditions for 1 hour at 37° C. Additional peptide-inhibition studies were performed by addition of peptides (40 μM final concentration) during the hypoxic period. Cells were methanol fixed and stained with the anti-β2-GPI mAb (Millipore; Billerica, Mass.) followed by an anti-mouse IgG antibody to determine β2-GPI binding. Anti-β2-GPI binding was determined by allowing anti-β2-GPI mAb (Millipore) to bind during the 1 hour normoxic period. The cells were then stained with anti-mouse IgG antibodies (Jackson ImmunoResearch; West Grove, Pa.) as previously described (Fleming, S. D. et al., J. Immunol. 173:7055-7061 (2004)). Slides were mounted with DAPI (Blue) to identify the nuclei. The fluorescence was determined in a blind manner using a Nikon 80i fluorescent microscope with a 40× Plan Fluor objective and images acquired using a CoolSnap Cf camera (Photometrics; Tucson, Ariz.) and MetaVue Imaging software (Molecular Devices; Sunnyvale, Calif.). Each photomicrograph in the Figures is representative of 3 experiments with 4-6 photomicrographs per treatment group in each experiment. Bar=40 μm. Hypoxia was conducted similar to previous studies with the following modifications (Banerjee, S. et al., Reprod. Biol. Endocrinol. 7:4 (2009)). Hypoxic cells received degassed, serum-free DMEM and were placed in a hypoxia chamber containing 94% nitrogen, 5% CO2, and 1% O2. Normoxic cells received normal DMEM with 10% FBS in 8% CO2. After 2 hours at 37° C., all cells received fresh medium containing 10% heat-inactivated Rag-1^−/− sera and then were incubated under normoxic conditions for 1 hour at 37° C. Cells receiving β2-GPI peptides were administered the peptides (40 μM) during the 2 hours of either hypoxia or normoxia. IgG binding was determined using anti-mouse IgG antibodies (Jackson ImmunoResearch) as previously described (Fleming, S. D. et al., J. Immunol. 173:7055-7061 (2004)). Similarly, after Sham or IR, intestinal sections from peptide-treated mice were stained with anti-IgG antibodies to determine antibody deposition. The fluorescence was determined in a blind manner using a Nikon 80i fluorescent microscope and images acquired using a CoolSnap Cf camera (Photometrics) and MetaVue Imaging software (Molecular Devices).

The test system of a further assay is peroxidase. Nature of the assay: Intestinal IR, total tissue peroxidase. In kind it is in vivo, mouse. The following applies: for total peroxidase production by the intestinal tissues: administered up to 60 min post-reperfusion. The procedure: Ischemia/reperfusion was performed on ketamine/xylazine anesthetized mice as described in Example 1 above. After 2 hours of reperfusion, the mice were euthanized and sera, liver, spleen, and 2 cm sections of the small intestine, approximately 10 cm distal to the gastroduodenal junction, were collected for histological and other analyses. Mice treated with the various β2-GPI peptides underwent the same procedure with i.v. administration of the peptides. Most studies assumed 2 mL total blood volume in a mouse and administered peptides to a final concentration of 40 μM at 5 min prior to ischemia. Dose response studies administered 1-40 μM peptide at 5 min prior to ischemia and time course studies administered 40 μM peptide at 5 min prior to ischemia, and at 15-, 30- or 60-min post-ischemia (i.e., during reperfusion).
Total peroxidase, LTB4, PGE2, IL-6, IL-12p40, and IL-12p70 concentrations were determined using the procedures described in Example 1.

The test system of assay [2] is thioglycollate-elicited macrophages, nitric oxide. Nature of the assay: β2-GPI stimulated macrophage nitric oxide production. In kind it is cell-based. The following applies: mouse β2-GPI 10 μg/mL, peptide 40 μM, 18 hours. As for the experimental part: (§1) C57Bl/6 mice were injected i.p. with 1 mL thioglycollate (4%) 4 days prior to peritoneal lavage. Peritoneal exudate macrophages or the B cell line, LK35.2, were seeded at 2×10^6 cells/mL in 24-well or 96-well plates. After macrophage adherence, both cell types were treated with mouse β2-GPI (10 μg/mL) with or without peptide (40 μM). Additional cells were unstimulated as a negative control or stimulated with 10 μg/mL LPS (E. coli 055B5) as a positive control. Supernatants were collected 18-20 hours after stimulation and analyzed for nitrite by Griess reagent (Hoffman & Fleming, Cell Biochem. Funct. 28:686-694 (2010)) or IL-6 by Milliplex MAP kit (Millipore) following the manufacturer's instructions using a Luminex 200 with xPONENT 3.1 and Analyst software (Millipore).

A further assay deals with CD31. Briefly: Spontaneous breast cancer model, CD31 RNA expression. It is filed as in vivo, mouse. Particulars: mammary tumors, compared to saline treated animals. As for the experimental part: mRNA was isolated from the tumor samples that were homogenized in Trizol. The concentration of mRNA was evaluated by nanodrop and the purity by bioanalyzer. cDNA was then synthesized using random primers with the Quanta cDNA synthesis kit. RT-PCR was then performed on a 1:100 dilution of cDNA for 18s rRNA. After 3 min denaturing at 95° C., the real-time PCR reaction consisted of 50 cycles (of 10 sec at 95° C., 20 sec at 58° C., and 10 sec at 72° C.), followed by a melt curve increasing at intervals of 0.5° C. from 60° C. to 95° C. RT-PCR was also performed on cDNA samples for CD31 and VEGF which are endothelial markers of angiogenesis. After subtracting 18s Ct values, peptide treated dCt values were normalized to saline treated samples and fold change calculated as ddCt. Primers were obtained from Integrated DNA Technology (Coraville, Iowa) and sequences are in the table below.

Assay [3] deals with thioglycollate-elicited macrophages, IL-6. Nature of the assay: β2-GPI stimulated macrophage IL-6 production. It is filed as cell-based. The following applies: mouse β2-GPI 10 μg/mL, peptide 40 μM, 18 hours. As for the experimental part:
as §1

[4] abbreviates: dose response, similar concentrations of each peptide.
Setting [5] is: peptide administered prior to IR.

Consider “H-IHFYCKNKEKKCSYTVEAHCRDGTI-OH (cysteine pairing not given here) [peptide 296]”, for which, in assay [1], the “anti-β2-GPI mAb binding to hypoxic MS-1 cells” value (“anti-β2-GPI mAb binding” below) is on record as “did not bind” and the “β2-GPI binding to hypoxic endothelial cells” value (“β2-GPI binding” below) is “capable of preventing β2-GPI from binding”.
With “H-IHFYSKNKEKKSSYTVEAHSRDGTI-OH [peptide 296Cys-Ser]”, the “β2-GPI binding” value in assay [1] is reported as “attenuated β2-GPI binding”. The “total peroxidase production by the intestinal tissues” value in the assay with peroxidase was “significantly decreased”. Also, the intestinal peroxidase production entry was “attenuated” in the assay on peroxidase (setting [4]) and “significantly attenuated” in the assay on peroxidase (setting [5]). The “β2-GPI-induced nitric oxide production” value in assay [2] is given as “significantly attenuated”. Also, the “RNA expression of CD31” value in the assay on CD31 is “significantly decreased”.
On to “H-IPSCFKEHSSLAFWKTDASELTPC-NH2 (cysteine pairing not given here) [peptide 322, 18]”, for which the “anti-β2-GPI mAb binding” value in assay [1] is given as “did not inhibit antibody binding”.
With “H-KKCSYTVEAHCRDGTIEIPSCFKEHS-OH (cysteine pairing not given here) [peptide 305, 10]”, in assay [1], the “anti-β2-GPI mAb binding” value is given as “did not bind”. Besides, the “β2-GPI binding” value in assay [1] is “capable of preventing β2-GPI from binding”. Further, in the assay with peroxidase, the “total peroxidase production by the intestinal tissues” value was “significantly decreased”. Moreover, the values for the intestinal peroxidase production result in the assay with peroxidase (setting [4]) and with peroxidase (setting [5]) were “attenuated” and “significantly attenuated”, respectively. In addition, the “β2-GPI-induced nitric oxide production” value in assay [2] is recorded as “significantly attenuated”. Also, in assay [3], the “β2-GPI induced IL-6 production” value is listed as “attenuated”.
As to “H-KNISFACNPGFFLNG-NH2 [peptide 100, 16, reference compound]”, the “anti-β2-GPI mAb binding” value in assay [1] was “did not inhibit antibody binding”.

These data come from patent US8895502B2, “β2-glycoprotein I peptide inhibitors” (Kansas State University Research Foundation, priority 2010, dated 2014).
